Results as given in BigSolDB 2.1.

C=CC(=O)NCO
Settings	solubility (mole fraction)
in acetonitrile, 279.15 K	0.0244
in acetonitrile, 282.05 K	0.0276
in acetonitrile, 288.15 K	0.0341
in acetonitrile, 292.75 K	0.041
in acetonitrile, 298.15 K	0.0499
in acetonitrile, 304.05 K	0.0614
in acetonitrile, 308.55 K	0.0716
in chloroform, 279.65 K	0.0011
in chloroform, 282.35 K	0.0013
in chloroform, 286.05 K	0.0015
in chloroform, 289.85 K	0.0019
in chloroform, 294.45 K	0.0023
in chloroform, 299.15 K	0.0029
in chloroform, 303.25 K	0.0035
in dichloromethane, 277.55 K	0.0018
in dichloromethane, 280.35 K	0.0019
in dichloromethane, 282.95 K	0.0021
in dichloromethane, 285.55 K	0.0023
in dichloromethane, 288.15 K	0.0025
in dichloromethane, 291.75 K	0.0028
in ethyl acetate, 278.55 K	0.0109
in ethyl acetate, 281.85 K	0.0127
in ethyl acetate, 285.05 K	0.0146
in ethyl acetate, 289.15 K	0.0176
in ethyl acetate, 296.95 K	0.0248
in ethyl acetate, 300.95 K	0.0294
in ethyl acetate, 305.05 K	0.0351
in furan, 278.55 K	0.0445
in furan, 282.05 K	0.0515
in furan, 284.45 K	0.0574
in furan, 288.25 K	0.0683
in furan, 291.45 K	0.0789
in furan, 294.85 K	0.0919
in furan, 297.25 K	0.102
in n-butyl acetate, 278.05 K	0.0037
in n-butyl acetate, 281.15 K	0.0045
in n-butyl acetate, 284.35 K	0.0055
in n-butyl acetate, 288.95 K	0.0073
in n-butyl acetate, 292.05 K	0.0087
in n-butyl acetate, 295.35 K	0.0105
in n-butyl acetate, 301.45 K	0.0148
in pyridine, 278.55 K	0.232
in pyridine, 281.35 K	0.245
in pyridine, 286.95 K	0.272
in pyridine, 292.25 K	0.303
in pyridine, 297.95 K	0.339
in pyridine, 302.15 K	0.367
in pyridine, 306.25 K	0.401
in toluene, 279.75 K	0.0004
in toluene, 284.35 K	0.0006
in toluene, 287.95 K	0.0008
in toluene, 291.55 K	0.0009
in toluene, 294.95 K	0.0011
in toluene, 298.55 K	0.0014
in toluene, 305.35 K	0.002
